{"source": "paper PMC5688848", "about": "(Bioorganic & medicinal chemistry, 2016)", "key": {"[1]": {"target": "His-REV7(R124A)/biotin-AviTag-REV3L(1846–1898) complex (Homo sapiens, UniProt Q9UI95, R124A)", "sequence (Q9UI95 whole entry R124A, one chain of several)": "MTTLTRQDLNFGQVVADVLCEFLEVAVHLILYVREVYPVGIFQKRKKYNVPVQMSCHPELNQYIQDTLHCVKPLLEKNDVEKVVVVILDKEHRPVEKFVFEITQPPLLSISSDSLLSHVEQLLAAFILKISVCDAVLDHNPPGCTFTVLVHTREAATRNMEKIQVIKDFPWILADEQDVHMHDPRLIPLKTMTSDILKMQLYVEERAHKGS", "assay": "Pull-down assay on streptavidin-conjugated agarose beads", "format": "binding", "settings": "compound 50 μM, complex 1 μM, 4°C 20 h"}, "[2]": {"target": "His-REV7(R124A)/REV3L(1847–1898) complex (Homo sapiens, UniProt Q9UI95, R124A)", "sequence (Q9UI95 whole entry R124A, one chain of several)": "as above", "assay": "Thermal shift assay", "format": "binding", "settings": "compound 500 μM, protein 5 μM, 4 h at room temperature"}, "[3]": {"test_system": "HeLa cells", "assay": "Cell toxicity assay", "format": "cell-based", "settings": "75 μM, 3 days"}, "[4]": {"test_system": "HeLa cells", "assay": "Cisplatin sensitization by the clonogenic survival assay", "format": "cell-based", "settings": "cisplatin 24 h then compound 75 μM 24 h, 6 more days"}, "[5]": {"test_system": "ICLR in COS7 cells", "assay": "ICL repair assay", "format": "cell-based", "settings": "75 μM"}, "[6]": {"target": "T1, hexahistidine (His)-REV7(R124A) (UniProt Q9UI95 1-211, R124A)", "T1 sequence (Q9UI95 whole entry R124A)": "as the sequence (Q9UI95 whole entry R124A, one chain of several) above", "assay": "AlphaScreen or HTRF"}, "[7]": {"target": "T1, hexahistidine (His)-REV7(R124A)", "assay": "AlphaScreen or HTRF", "remark": "listed apart in the source"}}, "note": "Ends that are not written are not given here.", "data": [{"molecule": "CC(=O)N1CCC(Cn2cnc3scc(-c4ccco4)c3c2=O)CC1", "note": "[compound 1]", "values": [{"measurement": "Isolation of His-REV7(R124A) on streptavidin beads (complex dissociation)", "setting": "[1]", "result": "significantly inhibited"}, {"measurement": "Shift in the denaturation point of the His-REV7(R124A)/REV3L(1847–1898) complex", "setting": "[2]", "result": "clear shift in the denaturation point"}]}, {"molecule": "CC(=O)N1CCC(Cn2cnc3scc(-c4ccc(C)o4)c3c2=O)CC1", "note": "[compound 7]", "values": [{"measurement": "Viability / growth of HeLa cells (alamarBlue), normalized by DMSO", "setting": "[3]", "result": "decreased HeLa cell growth but did not completely eliminate the cells"}, {"measurement": "Normalized number of colonies (clonogenic survival) versus cisplatin only", "setting": "[4]", "result": "lesser"}, {"measurement": "ICLR activity (luciferase activity of ICL plasmid normalized to non-ICL plasmid)", "setting": "[5]", "result": "suppressed luciferase activity"}]}, {"molecule": "ANILKPLMSPPSREEIMATLL-biotin", "note": "[C-terminal biotin-tagged REV3L(1875–1895) peptide]", "values": [{"measurement": "binding result", "setting": "[6]", "result": "binds"}]}, {"molecule": "ANILKPLMSPPSREEIMATLL", "note": "[non-tagged REV3L(1875–1895) peptide]", "values": [{"measurement": "IC50", "setting": "[7]", "result": 80, "unit": "nM"}]}]}
